Source: publication PMC6434189, “Peperomin E and its orally bioavailable analog induce oxidative stress-mediated apoptosis of acute myeloid leukemia progenitor cells by targeting thioredoxin reductase” (Redox Biology, 2019)

System: KG-1a CD34+ cells
Test: KG-1a-Luc CD34+ xenograft in NOD/SCID mice, bioluminescence
Assay type: in vivo
Protocol: Six-week-old female NOD-SCID mice (obtained from the model animal research center of Nanjing University, Nanjing, China) were acclimated for 1 week and housed in groups of five. All animal studies were conducted under the guidelines approved by the Animal Care and Use Committee of the Nanjing University of Chinese Medicine (Nanjing, China). The mice were sublethally irradiated with 2.7 Gy before transplantation.
KG-1a cells tagged with a luciferase reporter gene (KG-1a-Luc) were obtained from Cobioer biotechnology Inc. (Nanjing, Jiangsu, China) and cultured in 90% IMDM supplemented with 10% FBS, 0.05 mM 2-Mercaptoethanol, and 1 μg/mL Puromycin, and grown at 37 °C in a 5% CO2 humidified incubator. CD34 positive cells were enriched (following the 2.3 method) and injected via the tail vein in a final volume of 0.2 mL PBS with 0.5% FBS. For analyzing the luciferase signal, 5 × 10^6 cells KG-1a-Luc cells were used for each recipient animal. Seven days after transplantation, mice with KG-1a-Luc implants were subjected to bioluminescent analysis based on the luciferase signal. Briefly, mice received D-luciferin phosphate solution (100 mg/kg) intravenously 10 min prior to imaging. They were then anesthetized with isoflurane inhalation and imaged using a Xenogen IVIS scanner (PerkinElmer, Waltham, MA, USA). The next day, mice showing successful implantations were randomly divided into the control, DMAPE low dose, DMAPE high dose, and Ara-C treatment groups (n = 5 in each group), which received daily i. g. saline buffer, DMAPE phosphate salt 25 mg/kg, DMAPE phosphate salt 50 mg/kg and Ara-C (50 mg/kg), respectively. The growth of KG-1a-Luc cells was monitored every week by their luciferase signal. Five weeks after the implantation, all mice were sacrificed and their livers, kidneys, and bone marrow were excised for ex vivo bioluminescent imaging. The bioluminescent signal intensity was all quantified using the Living Image software (version 4.2, Carliper Life Science, Inc., Hopkinton, MA, USA) and is presented as photons/second/cm^2/sr (sr denotes steradian).

For COc1cc(C(c2cc(OC)c3c(c2)OCO3)[C@@H]2COC(=O)[C@H]2CN(C)CCO)cc2c1OCO2 [DMAPE, (2S,3S)-6-Methyl (hydroxyethyl) amino-2,6-dihydropeperomin E], the “growth and metastasis of AML CD34+ cells in NOD/SCID mice” value (25 mg/kg/d) was “significantly suppressed”, the “luciferase signal in the bone marrow” value (50 mg/kg i.g. daily, week 5, ex vivo imaging) was “almost no luciferase signal was detected” and the “overall luciferase signal in the liver and kidney, saline vs treated” value (50 mg/kg i.g. daily, week 5, P < 0.001 kidneys, P < 0.01 livers) was “significantly stronger in the saline-treated group”. The “luciferase signal intensities compared to the saline-treated mice” value (25 and 50 mg/kg i.g. daily, P < 0.05 at three weeks, P < 0.01 at five weeks) was “significantly weaker”.
